# Measured values from PubChem BioAssay (NCI).
#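 Cultured in 96-well plates, cells were exposed to test compound for 48 hours across five concentrations. TGI: total growth inhibition.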
# Experiments:
# Assay in all cases: inhibition of tumour cell growth, NCI panel, 48 h
# 786-0 renal = system: 786-0 renal
# A498 renal = system: A498 renal
# A549 NSCLC = system: A549 NSCLC
# ACHN renal = system: ACHN renal
# BT-549 breast = system: BT-549 breast
# CAKI-1 renal = system: CAKI-1 renal
# CCRF-CEM leukemia = system: CCRF-CEM leukemia
# COLO 205 colon = system: COLO 205 colon
# DU-145 prostate = system: DU-145 prostate
# EKVX NSCLC = system: EKVX NSCLC
# HCT-116 colon = system: HCT-116 colon
# HL-60(TB) leukemia = system: HL-60(TB) leukemia
# HOP-62 NSCLC = system: HOP-62 NSCLC
# HOP-92 NSCLC = system: HOP-92 NSCLC
# HS 578T breast = system: HS 578T breast
# HT29 colon = system: HT29 colon
# IGROV1 ovarian = system: IGROV1 ovarian
# K-562 leukemia = system: K-562 leukemia
# KM12 colon = system: KM12 colon
# LOX IMVI melanoma = system: LOX IMVI melanoma
# M14 melanoma = system: M14 melanoma
# MALME-3M melanoma = system: MALME-3M melanoma
# MCF7 breast = system: MCF7 breast
# MDA-MB-231 breast = system: MDA-MB-231 breast
# MDA-MB-435 = system: MDA-MB-435
# MDA-N = system: MDA-N
# MOLT-4 leukemia = system: MOLT-4 leukemia
# NCI-H226 lung = system: NCI-H226 lung
# NCI-H23 lung = system: NCI-H23 lung
# NCI-H460 lung = system: NCI-H460 lung
# NCI-H522 lung = system: NCI-H522 lung
# NCI/ADR-RES ovarian = system: NCI/ADR-RES ovarian
# OVCAR-3 ovarian = system: OVCAR-3 ovarian
# OVCAR-4 ovarian = system: OVCAR-4 ovarian
# OVCAR-5 ovarian = system: OVCAR-5 ovarian
# OVCAR-8 ovarian = system: OVCAR-8 ovarian
# PC-3 prostate = system: PC-3 prostate
# RPMI-8226 leukemia = system: RPMI-8226 leukemia
# RXF 393 renal = system: RXF 393 renal
# SF-268 CNS = system: SF-268 CNS
# SF-295 CNS = system: SF-295 CNS
# SF-539 CNS = system: SF-539 CNS
# SK-MEL-2 melanoma = system: SK-MEL-2 melanoma
# SK-MEL-28 melanoma = system: SK-MEL-28 melanoma
# SK-MEL-5 melanoma = system: SK-MEL-5 melanoma
# SK-OV-3 ovarian = system: SK-OV-3 ovarian
# SN12C renal = system: SN12C renal
# SNB-19 CNS = system: SNB-19 CNS
# SNB-75 CNS = system: SNB-75 CNS
# SR leukemia = system: SR leukemia
# SW-620 colon = system: SW-620 colon
# T-47D breast = system: T-47D breast
# TK-10 renal = system: TK-10 renal
# U251 CNS = system: U251 CNS
# UACC-257 melanoma = system: UACC-257 melanoma
# UACC-62 melanoma = system: UACC-62 melanoma
# UO-31 renal = system: UO-31 renal
# HCT-15 colon = system: HCT-15 colon
smiles,measurement,setting,value
O=C1c2ccccc2-c2cc([N+](=O)[O-])c([N+](=O)[O-])cc21,TGI,786-0 renal,5.86 µM
same,TGI,A498 renal,33.1 µM
same,TGI,A549 NSCLC,6.23 µM
same,TGI,ACHN renal,3.07 µM
same,TGI,BT-549 breast,3.79 µM
same,TGI,CAKI-1 renal,6.17 µM
same,TGI,CCRF-CEM leukemia,0.958 µM
same,TGI,COLO 205 colon,4.71 µM
same,TGI,DU-145 prostate,3.28 µM
same,TGI,EKVX NSCLC,4.11 µM
same,TGI,HCT-116 colon,6.23 µM
same,TGI,HL-60(TB) leukemia,3.97 µM
same,TGI,HOP-62 NSCLC,3.13 µM
same,TGI,HOP-92 NSCLC,3.2 µM
same,TGI,HS 578T breast,> 100 µM
same,TGI,HT29 colon,3.87 µM
same,TGI,IGROV1 ovarian,2.84 µM
same,TGI,K-562 leukemia,8.04 µM
same,TGI,KM12 colon,3.51 µM
same,TGI,LOX IMVI melanoma,2.12 µM
same,TGI,M14 melanoma,3.43 µM
same,TGI,MALME-3M melanoma,4.95 µM
same,TGI,MCF7 breast,2.4 µM
same,TGI,MDA-MB-231 breast,3.33 µM
same,TGI,MDA-MB-435,3.27 µM
same,TGI,MDA-N,5.18 µM
same,TGI,MOLT-4 leukemia,4.36 µM
same,TGI,NCI-H226 lung,12.6 µM
same,TGI,NCI-H23 lung,3.25 µM
same,TGI,NCI-H460 lung,3.06 µM
same,TGI,NCI-H522 lung,2.99 µM
same,TGI,NCI/ADR-RES ovarian,9.64 µM
same,TGI,OVCAR-3 ovarian,1.01 µM
same,TGI,OVCAR-4 ovarian,3.31 µM
same,TGI,OVCAR-5 ovarian,5.41 µM
same,TGI,OVCAR-8 ovarian,3.57 µM
same,TGI,PC-3 prostate,2.93 µM
same,TGI,RPMI-8226 leukemia,6.23 µM
same,TGI,RXF 393 renal,2.64 µM
same,TGI,SF-268 CNS,5.13 µM
same,TGI,SF-295 CNS,3.08 µM
same,TGI,SF-539 CNS,1.03 µM
same,TGI,SK-MEL-2 melanoma,3.66 µM
same,TGI,SK-MEL-28 melanoma,8.4 µM
same,TGI,SK-MEL-5 melanoma,3.94 µM
same,TGI,SK-OV-3 ovarian,6.51 µM
same,TGI,SN12C renal,3.42 µM
same,TGI,SNB-19 CNS,3.36 µM
same,TGI,SNB-75 CNS,3.39 µM
same,TGI,SR leukemia,0.459 µM
same,TGI,SW-620 colon,> 21.1 µM
same,TGI,T-47D breast,2.69 µM
same,TGI,TK-10 renal,2.81 µM
same,TGI,U251 CNS,2.93 µM
same,TGI,UACC-257 melanoma,2.74 µM
same,TGI,UACC-62 melanoma,3.13 µM
same,TGI,UO-31 renal,3.07 µM
NC(CSC1c2ccccc2-c2ccccc21)C(=O)O (stereo not drawn),TGI,786-0 renal,> 100 µM
same,TGI,A498 renal,> 100 µM
same,TGI,A549 NSCLC,> 100 µM
same,TGI,ACHN renal,> 100 µM
same,TGI,BT-549 breast,> 100 µM
same,TGI,CAKI-1 renal,> 100 µM
same,TGI,CCRF-CEM leukemia,> 100 µM
same,TGI,COLO 205 colon,> 100 µM
same,TGI,DU-145 prostate,> 100 µM
same,TGI,EKVX NSCLC,> 100 µM
same,TGI,HCT-116 colon,> 100 µM
same,TGI,HCT-15 colon,> 100 µM
same,TGI,HL-60(TB) leukemia,> 100 µM
same,TGI,HOP-62 NSCLC,> 100 µM
same,TGI,HOP-92 NSCLC,> 100 µM
same,TGI,HS 578T breast,> 100 µM
same,TGI,HT29 colon,> 100 µM
same,TGI,IGROV1 ovarian,> 100 µM
same,TGI,K-562 leukemia,> 100 µM
same,TGI,KM12 colon,> 100 µM
same,TGI,LOX IMVI melanoma,> 100 µM
same,TGI,M14 melanoma,> 100 µM
same,TGI,MALME-3M melanoma,> 100 µM
same,TGI,MCF7 breast,> 100 µM
same,TGI,MDA-MB-231 breast,> 100 µM
same,TGI,MDA-MB-435,> 100 µM
same,TGI,MDA-N,> 100 µM
same,TGI,MOLT-4 leukemia,> 100 µM
same,TGI,NCI-H226 lung,> 100 µM
same,TGI,NCI-H23 lung,> 100 µM
same,TGI,NCI-H460 lung,> 100 µM
same,TGI,NCI/ADR-RES ovarian,> 100 µM
same,TGI,OVCAR-3 ovarian,> 100 µM
same,TGI,OVCAR-4 ovarian,> 100 µM
same,TGI,OVCAR-5 ovarian,> 100 µM
same,TGI,OVCAR-8 ovarian,> 100 µM
same,TGI,PC-3 prostate,> 100 µM
same,TGI,RPMI-8226 leukemia,> 100 µM
same,TGI,RXF 393 renal,> 100 µM
same,TGI,SF-295 CNS,> 100 µM
same,TGI,SF-539 CNS,> 100 µM
same,TGI,SK-MEL-2 melanoma,> 100 µM
same,TGI,SK-MEL-28 melanoma,> 100 µM
same,TGI,SK-MEL-5 melanoma,> 100 µM
same,TGI,SK-OV-3 ovarian,> 100 µM
same,TGI,SN12C renal,> 100 µM
same,TGI,SNB-19 CNS,> 100 µM
same,TGI,SNB-75 CNS,> 100 µM
same,TGI,SR leukemia,> 100 µM
same,TGI,SW-620 colon,> 100 µM
same,TGI,T-47D breast,> 100 µM
same,TGI,TK-10 renal,> 100 µM
same,TGI,U251 CNS,> 100 µM
same,TGI,UACC-257 melanoma,> 100 µM
same,TGI,UACC-62 melanoma,> 100 µM
same,TGI,UO-31 renal,> 100 µM
